Assay [1] deals with T1, ΔF508-CFTR (Homo sapiens, UniProt P13569, DEL508-508).
T1 construct: host or cells: CFBE41o-, doxycycline-inducible
Nature of the assay: CFTR cell surface levels using HRP-tagged ΔF508-CFTR expressing CFBE cells, in the presence of a co-corrector. The assay is classed as cell-based. Particulars: HRP-tagged ΔF508-CFTR expressing CFBE cells, in the presence of 3 μM co-corrector; for EC50: read-out: EC50. In short, it runs like this:
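Cells were seeded with 0.5 μg/mL doxycycline and held 68 h at 37 °C. Test compounds plus 3 μM co-corrector (final 0.1% DMSO) were then added for 20 h at 33 °C. Washed cells received HRP substrate, and luminescence was normalized between DMSO and 3 μM co-corrector controls.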

Assay [2] concerns the target T1, ΔF508-CFTR. Briefly: CFTR cell surface levels using HRP-tagged ΔF508-CFTR expressing CFBE cells, intrinsic corrector capacity. Conditions: for EC50: read-out: EC50. The assay is classed as cell-based. The method in brief: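 Here the cells express ΔF508-CFTR with horseradish peroxidase inserted in extracellular loop 4, so only rescued channel at the surface gives luminescent signal. Compounds act on their own, 20 h at the reduced temperature of 33 °C; values are percent activity relative to DMSO and a 3 μM corrector.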

The mark [3] stands for this setting: HRP-tagged ΔF508-CFTR expressing CFBE cells, intrinsic corrector capacity (no co-corrector), 33° C., 20 hours.
Where [4] appears, read: HRP-tagged ΔF508-CFTR CFBE41o- cells, compounds alone (intrinsic corrector capacity), 20 hours at 33° C., positive control 3 μM corrector.
Where [5] appears, read: HRP-tagged ΔF508-CFTR CFBE41o- cells, compounds alone (intrinsic corrector capacity), 20 hours at 33° C.

Each structure is given as a SMILES string.

T1 sequence (P13569 with tags, fused parts or gaps DEL508-508): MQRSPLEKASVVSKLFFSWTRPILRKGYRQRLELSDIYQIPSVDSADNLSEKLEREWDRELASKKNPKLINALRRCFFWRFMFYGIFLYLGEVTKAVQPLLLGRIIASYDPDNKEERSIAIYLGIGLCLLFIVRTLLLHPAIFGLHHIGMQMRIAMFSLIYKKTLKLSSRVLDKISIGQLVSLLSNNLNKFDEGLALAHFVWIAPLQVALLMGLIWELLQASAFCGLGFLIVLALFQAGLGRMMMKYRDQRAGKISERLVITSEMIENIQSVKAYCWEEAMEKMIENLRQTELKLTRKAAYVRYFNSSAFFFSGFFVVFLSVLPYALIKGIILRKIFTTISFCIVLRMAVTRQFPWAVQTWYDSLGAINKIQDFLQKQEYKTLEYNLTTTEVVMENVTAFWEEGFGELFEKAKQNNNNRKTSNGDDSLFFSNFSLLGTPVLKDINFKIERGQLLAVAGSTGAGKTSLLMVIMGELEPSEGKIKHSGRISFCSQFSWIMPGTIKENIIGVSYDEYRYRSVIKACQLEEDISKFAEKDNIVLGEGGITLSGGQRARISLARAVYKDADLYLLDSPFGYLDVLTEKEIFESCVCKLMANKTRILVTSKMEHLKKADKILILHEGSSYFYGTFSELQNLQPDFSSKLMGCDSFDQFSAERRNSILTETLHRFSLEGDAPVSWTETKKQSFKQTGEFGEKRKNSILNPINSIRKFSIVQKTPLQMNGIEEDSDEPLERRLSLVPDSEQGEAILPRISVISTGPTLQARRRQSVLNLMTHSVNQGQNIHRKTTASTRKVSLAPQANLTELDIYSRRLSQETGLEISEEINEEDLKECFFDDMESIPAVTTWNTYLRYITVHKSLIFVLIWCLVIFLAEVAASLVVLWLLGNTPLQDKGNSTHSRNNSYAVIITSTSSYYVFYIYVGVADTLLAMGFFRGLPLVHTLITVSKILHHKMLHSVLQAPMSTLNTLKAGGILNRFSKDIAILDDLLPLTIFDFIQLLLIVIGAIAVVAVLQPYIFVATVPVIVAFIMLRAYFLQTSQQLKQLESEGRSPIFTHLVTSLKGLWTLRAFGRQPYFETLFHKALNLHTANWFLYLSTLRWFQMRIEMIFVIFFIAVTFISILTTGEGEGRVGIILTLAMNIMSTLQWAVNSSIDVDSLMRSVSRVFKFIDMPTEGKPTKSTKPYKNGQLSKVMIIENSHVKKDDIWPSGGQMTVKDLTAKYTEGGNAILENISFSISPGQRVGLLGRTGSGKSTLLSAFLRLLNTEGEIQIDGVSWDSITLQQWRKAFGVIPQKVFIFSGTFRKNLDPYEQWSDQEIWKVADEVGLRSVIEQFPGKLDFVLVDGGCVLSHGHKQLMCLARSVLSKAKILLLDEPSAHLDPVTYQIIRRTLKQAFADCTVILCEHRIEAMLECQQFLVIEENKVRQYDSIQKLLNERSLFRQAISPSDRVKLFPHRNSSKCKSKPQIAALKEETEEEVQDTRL

A word on the EC50: it is the midpoint of the concentration-response curve. As for `O=C(O)c1cc(N2CC(F)(F)C2)c2c(C3CCC3)nn(-c3ccccc3)c2n1` [compound 528, 3-cyclobutyl-4-(3,3-difluoroazetidin-1-yl)-1-phenyl-1H-pyrazolo[3,4-b]pyridine-6-carboxylic acid], at ΔF508-CFTR [1], the “% Activation” value is given as 209.2% and the concentration for a half-maximal effect (EC50) was 1940 nM. At ΔF508-CFTR [2] (setting [3]), the “% Activation” value was found to be 80.74% and the EC50 came out at 3330 nM.

On to `CC(=O)N1CC(c2nn(-c3ccccc3)c3nc(C(=O)O)cc(-c4ccc(N5CCOCC5)cc4)c23)C1` [compound 78, 3-(1-acetylazetidin-3-yl)-4-[4-(morpholin-4-yl)phenyl]-1-phenyl-1H-pyrazolo[3,4-b]pyridine-6-carboxylic acid], for which the “% Activation” value on ΔF508-CFTR [1] is 132%; on ΔF508-CFTR [2] (setting [4]), 10.784%. Moreover, the EC50 at ΔF508-CFTR [1] and on ΔF508-CFTR [2] (setting [5]) was > 10000 nM throughout.

As to `COC1CCCN(c2cc(C(=O)O)nc3c2c(C2CCC2)nn3-c2ccccc2)C1` (centres unmarked) [compound 468, 3-cyclobutyl-4-(3-methoxypiperidin-1-yl)-1-phenyl-1H-pyrazolo[3,4-b]pyridine-6-carboxylic acid], the “% Activation” value at ΔF508-CFTR [1] is reported as 297.2%; on ΔF508-CFTR [2] (setting [3]), 120.3%. The EC50 at ΔF508-CFTR [1] was 371 nM; at ΔF508-CFTR [2] (setting [3]) it was 618 nM.

Take `CS(=O)(=O)N1CCC(F)(COc2cc(C(=O)O)nc3c2c(C2CCC2)nn3-c2ccccc2)CC1` [compound 626, 3-cyclobutyl-4-{[4-fluoro-1-(methanesulfonyl)piperidin-4-yl]methoxy}-1-phenyl-1H-pyrazolo[3,4-b]pyridine-6-carboxylic acid]: the “% Activation” value on ΔF508-CFTR [1] worked out at 398.15%; on ΔF508-CFTR [2] (setting [3]), 223.1%. The 50% effective concentration (EC50) is 1010 nM on ΔF508-CFTR [1] and 2710 nM on ΔF508-CFTR [2] (setting [3]).

As to `CC(C)c1nn(-c2ccc(F)cc2)c2nc(C(=O)O)cc(N3CCN(CCC(=O)N4CCCN(C)CC4)CC3)c12` [compound 779, 1-(4-fluorophenyl)-4-{4-[3-(4-methyl-1,4-diazepan-1-yl)-3-oxopropyl]piperazin-1-yl}-3-(propan-2-yl)-1H-pyrazolo[3,4-b]pyridine-6-carboxylic acid], the figures for the “% Activation” value on ΔF508-CFTR [1] and on ΔF508-CFTR [2] (setting [3]) were 121.2% and 6.923%, respectively. Besides, the EC50 at ΔF508-CFTR [1] and on ΔF508-CFTR [2] (setting [3]) was 5000 nM in each case.

For the compound `Cc1cccc(-n2nc(C(C)C)c3c(N4CCC(C#N)C4)cc(C(=O)O)nc32)c1` (centres unmarked) [compound 218, 4-(3-cyanopyrrolidin-1-yl)-1-(3-methylphenyl)-3-(propan-2-yl)-1H-pyrazolo[3,4-b]pyridine-6-carboxylic acid], the figures for the “% Activation” value on ΔF508-CFTR [1] and at ΔF508-CFTR [2] (setting [4]) were 380.9% and 169.4%, respectively. The 50% effective concentration (EC50) was found to be 933 nM on ΔF508-CFTR [1] and 2310 nM on ΔF508-CFTR [2] (setting [5]).

On to `COC1CCC(Oc2cc(C(=O)O)nc3c2c(C)nn3-c2ccccc2)CC1` (centres unmarked) [compound 376, 4-[(4-methoxycyclohexyl)oxy]-3-methyl-1-phenyl-1H-pyrazolo[3,4-b]pyridine-6-carboxylic acid], for which the “% Activation” value is on record as 289.4% on ΔF508-CFTR [1] and 109.7% at ΔF508-CFTR [2] (setting [4]). Also, the results for the concentration giving a half-maximal response (EC50) at ΔF508-CFTR [1] and on ΔF508-CFTR [2] (setting [5]) were 1140 nM and 1610 nM, respectively.

With `CC(C)c1nn(-c2cccc(N3CCCC3)c2)c2nc(C(=O)O)cc(-c3ccc(N(C)C4CCOCC4)cc3)c12` [compound 249, 4-{4-[nethyl(oxan-4-yl)amino]phenyl}-3-(propan-2-yl)-1-[3-(pyrrolidin-1-yl)phenyl]-1H-pyrazolo[3,4-b]pyridine-6-carboxylic acid], the “% Activation” value on ΔF508-CFTR [1] amounted to 596.2%; at ΔF508-CFTR [2] (setting [4]), 410.6%. Besides, the EC50 at ΔF508-CFTR [1] is 288 nM; on ΔF508-CFTR [2] (setting [5]), 475 nM.

In the case of `Cc1nn(-c2ccccc2)c2nc(C(=O)O)cc(N3CC(N4CCOCC4)C3)c12` [compound 302, 3-methyl-4-[3-(morpholin-4-yl)azetidin-1-yl]-1-phenyl-1H-pyrazolo[3,4-b]pyridine-6-carboxylic acid], the “% Activation” value was determined as 131.6% at ΔF508-CFTR [1] and 18.02% on ΔF508-CFTR [2] (setting [4]). For the same compound, the EC50 on ΔF508-CFTR [1] and at ΔF508-CFTR [2] (setting [5]) was 7500 nM throughout.

For `CS(=O)(=O)[C@@H]1CCN(c2cc(C(=O)O)nc3c2c(C2CCC2)nn3-c2ccccc2)C1` [compound 467, 3-cyclobutyl-4-[(3R)-3-(methanesulfonyl)pyrrolidin-1-yl]-1-phenyl-1H-pyrazolo[3,4-b]pyridine-6-carboxylic acid], on ΔF508-CFTR [1], the “% Activation” value is listed as 274.35% and the half-maximal effective concentration (EC50) worked out at 3340 nM. At ΔF508-CFTR [2] (setting [3]), the “% Activation” value is 97.95% and the concentration giving a half-maximal response (EC50) was 3340 nM.

Turning to `Cc1nn(-c2ccccc2)c2nc(C(=O)O)cc(N3CCN(CC(=O)N(C)C)CC3)c12` [compound 323, 4-{4-[2-(dimethylamino)-2-oxoethyl]piperazin-1-yl}-3-methyl-1-phenyl-1H-pyrazolo[3,4-b]pyridine-6-carboxylic acid], the “% Activation” value on ΔF508-CFTR [1] is reported as 128.4%; on ΔF508-CFTR [2] (setting [4]), 8.143%. Further, the EC50 on ΔF508-CFTR [1] and on ΔF508-CFTR [2] (setting [5]) was > 10000 nM throughout.

As to `CC(C)c1nn(-c2cccc(N3CCOCC3)c2)c2nc(C(=O)O)cc(-c3ccc(N4CCC(C#N)CC4)nc3)c12` [compound 178], the “% Activation” value at ΔF508-CFTR [1] worked out at 591%; on ΔF508-CFTR [2] (setting [4]), 415%. Also, the results for the concentration for a half-maximal effect (EC50) on ΔF508-CFTR [1] and at ΔF508-CFTR [2] (setting [5]) were 458 nM and 628 nM, respectively.

Regarding `Cc1nn(-c2ccccc2)c2nc(C(=O)O)cc(-c3ccc(N4CCC(N(C)C)C4)cc3)c12` (centres unmarked) [compound 217, 4-{4-[3-(dimethylamino)pyrrolidin-1-yl]phenyl}-3-methyl-1-phenyl-1H-pyrazolo[3,4-b]pyridine-6-carboxylic acid], the “% Activation” value at ΔF508-CFTR [1] came out at 342.3%; on ΔF508-CFTR [2] (setting [4]) it was 129.7%. The 50% effective concentration (EC50) is 1470 nM at ΔF508-CFTR [1] and 1520 nM at ΔF508-CFTR [2] (setting [5]).

In the case of `O=C(O)c1cc(N2CCC3C(CCN3C3CCOCC3)C2)c2c(C3CCC3)nn(-c3ccc(F)cc3)c2n1` (centres unmarked) [compound 903, 3-cyclobutyl-1-(4-fluorophenyl)-4-[1-(oxan-4-yl)octahydro-5H-pyrrolo[3,2-c]pyridin-5-yl]-1H-pyrazolo[3,4-b]pyridine-6-carboxylic acid], on ΔF508-CFTR [1], the “% Activation” value is listed as 480.55% and the half-maximal effective concentration (EC50) was found to be 108 nM. In addition, on ΔF508-CFTR [2] (setting [3]), the “% Activation” value stood at 275.8% and the EC50 is 331 nM.

Turning to `O=C1CC[C@H](Oc2cc(C(=O)O)nc3c2c(C2CCC2)nn3-c2ccccc2)CN1` [compound 619, 3-cyclobutyl-4-{[(3S)-6-oxopiperidin-3-yl]oxy}-1-phenyl-1H-pyrazolo[3,4-b]pyridine-6-carboxylic acid], the “% Activation” value is listed as 134.1% at ΔF508-CFTR [1] and 7.484% on ΔF508-CFTR [2] (setting [3]). Besides, the EC50 on ΔF508-CFTR [1] and at ΔF508-CFTR [2] (setting [3]) was > 10000 nM throughout.

For `COC(=O)N1CCC(n2nc(C(C)C)c3c(-c4ccc(N5CCOCC5)cc4)cc(C(=O)O)nc32)C1` (centres unmarked) [compound 142, 1-[1-(methoxycarbonyl)pyrrolidin-3-yl]-4-[4-(morpholin-4-yl)phenyl]-3-(propan-2-yl)-1H-pyrazolo[3,4-b]pyridine-6-carboxylic acid], the “% Activation” value on ΔF508-CFTR [1] is listed as 135.2%; at ΔF508-CFTR [2] (setting [4]), 17.605%. Further, the EC50 on ΔF508-CFTR [1] was 5550 nM; on ΔF508-CFTR [2] (setting [5]), > 10000 nM.

As to `CC(C)c1nn(C2CCCCC2)c2nc(C(=O)O)cc(-c3cnc(N4CCOCC4)nc3)c12` [compound 80, 1-cyclohexyl-4-[2-(morpholin-4-yl)pyrimidin-5-yl]-3-(propan-2-yl)-1H-pyrazolo[3,4-b]pyridine-6-carboxylic acid], the “% Activation” value at ΔF508-CFTR [1] came out at 341.92%; on ΔF508-CFTR [2] (setting [4]) it was 184.8%. The half-maximal effective concentration (EC50) at ΔF508-CFTR [1] amounted to 2930 nM; on ΔF508-CFTR [2] (setting [5]) it was 611 nM.

`COC1CCN(c2cc(C(=O)O)nc3c2c(C2CCC2)nn3-c2ccccc2)CC1` [compound 358, 3-cyclobutyl-4-(4-methoxypiperidin-1-yl)-1-phenyl-1H-pyrazolo[3,4-b]pyridine-6-carboxylic acid]: the “% Activation” value at ΔF508-CFTR [1] worked out at 370.47%; on ΔF508-CFTR [2] (setting [4]), 205.07%. The 50% effective concentration (EC50) on ΔF508-CFTR [1] came out at 206 nM; at ΔF508-CFTR [2] (setting [5]), 410 nM.

On to `O=C(O)c1cc(N2CCC(CN3CC[C@@H](F)C3)CC2)c2c(C3CCC3)nn(-c3ccccc3)c2n1` [compound 832, 3-cyclobutyl-4-(4-{[(3R)-3-fluoropyrrolidin-1-yl]methyl}piperidin-1-yl)-1-phenyl-1H-pyrazolo[3,4-b]pyridine-6-carboxylic acid], for which, at ΔF508-CFTR [1], the “% Activation” value came out at 526.6% and the EC50 came out at 1070 nM. Further, at ΔF508-CFTR [2] (setting [3]), the “% Activation” value was 250.5% and the concentration giving a half-maximal response (EC50) worked out at 151 nM.

For the compound `CC(C)c1nn(-c2cccc(N3CCOCC3)c2)c2nc(C(=O)O)cc(-c3ccc(N(C)C4CCOCC4)cc3)c12` [compound 208, 4-{4-[methyl(oxan-4-yl)amino]phenyl}-1-[3-(morpholin-4-yl)phenyl]-3-(propan-2-yl)-1H-pyrazolo[3,4-b]pyridine-6-carboxylic acid], the “% Activation” value stood at 673.2% at ΔF508-CFTR [1] and 413.75% at ΔF508-CFTR [2] (setting [4]). For the same compound, the half-maximal effective concentration (EC50) is 647 nM on ΔF508-CFTR [1] and 603 nM at ΔF508-CFTR [2] (setting [5]).

(Values after US9796711B2, “Substituted pyrazolo[3,4-b]pyridin-6-carboxylic acids and method of use” (AbbVie S.àr.l., priority 2015, dated 2017).)
